From publication PMC9692542, “First Report of the Molecular Mechanism of Resistance to Tribenuron-Methyl in Silene conoidea L” (Plants, 2022)

System: T1, ALS (acetolactate synthase)
T1 construct: native enzyme in leaf extract, not purified
Assay: in vitro ALS activity of leaf extract, colorimetric acetoin ([…] nm)
Format: biochemical, Silene conoidea
Details: leaf extract of susceptible population; read-out: I50 (μM) ^c

COC(=O)c1ccccc1S(=O)(=O)NC(=O)N(C)c1nc(C)nc(OC)n1 [tribenuron-methyl, methyl 2-[[[[N-(4-methoxy-6-methyl-1,3,5triazin-2-yl)methyl-amino]carbonyl]amino]sulfonyl]benzoate]
IC50: 11.6 ± 1 µM
